Here are results for 1 molecule from patent EP0260606A2, “Medicament for curing neurotic disturbance or disorder comprising sialocylglycerolipid” (MECT CORPORATION, priority 1986, dated 1988).

This experiment relates to rats having their sciatic nerves crushed. Nature of the experiment: Curing effect on rats with crushed sciatic nerve (distance between toes, weight of musculi soleus). Type of experiment: in vivo, rat. The following applies: 0.5 mg/kg, ip, average ± S.D. The procedure:
The curing effect of the compound (I) of the invention on the rats having their sciatic nerves crushed, which were used as models caused by peripheral nervous disturbances, was assessed by examining (l) the change in action of the crushed hind leg and (2) the change in weight of the muscle as indicators for the modification of peripheral nerve and for the recovery course of the disturbance.
In the experiment, seven male Wister family rats (6 weeks age) were used per a group. The sciatic nerve of each rat was crushed in accordance with the method of Yamazu et al. (see Kiyomi Yamazu, Takenori Kaneko, Akifumi Kitahara and Isao Ohkawa, Journal of Japanese Pharmacological Society, 72, 259 - -268 (l976)) and in accordance with the method of Hasegawa et al. (see Kazuo Hasegawa, Naoji Mikuni and Yutaka Sakai, Journal of Japanese Pharmacological Society, 74, 72l - 734 (l978)). Specifically, under anesthesia with Pentobarbital (40 mg/kg, i.p.), the left sciatic nerve was exposed at the femur and the site 5 mm centrally from the branch portion between the N. tibialis and the N. suralis was crushed using a modified artery klemme having a width of 2 mm and gap of 0.l mm. Rats subjected to the operation were randomly dispensed to form the groups subjected to test.
The compound (I) of the invention was intraperitoneally administered one time per day from the day on which the nerve was crushed to the 22nd day. The control groups included a group administered with Mecobalamin (produced by Gedeon Richter Ltd.), a group administered with a 20% aqueous solution of propylene glycol (hereinafter referred to as 20% PG) which was used to dissolve the compound (I) of the invention, and a group administered with a 0.9% aqueous saline solution. The predetermined measurements were conducted with the lapse of time after the crushing operation (at the first, fourth, seventh, tenth, l4th, l5th, l7th, l9th 2lst and 28th days).
The distance between the toes was measured, since this is a good indicator showing the modification and recovery of the function of the nerve and the change thereof could conveniently measured with the lapse of time.
The measurement was conducted in accordance with the method of Hasegawa, (Hasegawa, K., Experientia, 34, 750 - 75l (l978)) by measuring the distance from the first toe to the fifth toe of the hind leg.
The ratio of the distance at the crushed side to the distance at the normal side was calculated as a percentage (%), the average values and the standard deviations (S.D.) being shown in Table 5.
It is known that removal of or disturbance in a certain nerve causes atrophy of the muscle controlled by the nerve, and the atrophy is gradually recovered by the recontrol by the nerve. For this reason, the quantitative change in weight of the muscle was selected as an indicator. At 28th day after the operation, the muscli soleus of both hind legs were extracted under anesthesia with Pentobarbital, and the weights of the muscles were weighed. The weight ratio of the muscli soleus at the crushed side to the muscli soleus at the normal side was calculated and represented by percentage (%).

SMILES strings stand for the structures.

As for `C/C1=C2/[N-][C@H]([C@H](CC(N)=O)[C@@]2(C)CCC(=O)NC[C@@H](C)OP(=O)([O-])O[C@H]2[C@@H](O)[C@@H](n3cnc4cc(C)c(C)cc43)O[C@@H]2CO)[C@]2(C)N=C(/C(C)=C3N=C(/C=C4N=C1[C@@H](CCC(N)=O)C\4(C)C)[C@@H](CCC(N)=O)[C@]\3(C)CC(N)=O)[C@@H](CCC(N)=O)[C@]2(C)CC(N)=O.[CH3-].[Co+3]` [Mecobalamine], the “Recovery Rate (%) in Distance between the Fingers” value is recorded as 77.0 ± 10.7% (17th Day) and 88.8 ± 5.1 % (19th Day). Also, the “Recovery Rate (%) in Weight of the Muscle” value (28th Day) worked out at 82.7 ± 5.1%.
